Experimental data as given in ChEMBL document CHEMBL4270604, “Hedgehog pathway inhibitors of the acylthiourea and acylguanidine class show antitumor activity on colon cancer in vitro and in vivo” (Eur J Med Chem, 2018).

How the values were obtained:
[1] = Cmax in CD1 mouse at 200 mg/kg, po administered as single dose by HPLC-MS/MS analysis; assay type: ADME, organism-based; set-up: dose 200 mg/kg, route oral; conditions: in vivo
[2] = target: T1, CYP2C9 (Homo sapiens, UniProt P11712); test: Inhibition of recombinant human CYP2C9 expressed in insect cell microsomes at 1 uM using Luciferin-H as substrate preincubated for 30 mins followed by NADPH addition measured after 30 mins by luminometric method; assay type: ADME; conditions: probe Luciferin-H
T1 sequence (P11712 whole entry): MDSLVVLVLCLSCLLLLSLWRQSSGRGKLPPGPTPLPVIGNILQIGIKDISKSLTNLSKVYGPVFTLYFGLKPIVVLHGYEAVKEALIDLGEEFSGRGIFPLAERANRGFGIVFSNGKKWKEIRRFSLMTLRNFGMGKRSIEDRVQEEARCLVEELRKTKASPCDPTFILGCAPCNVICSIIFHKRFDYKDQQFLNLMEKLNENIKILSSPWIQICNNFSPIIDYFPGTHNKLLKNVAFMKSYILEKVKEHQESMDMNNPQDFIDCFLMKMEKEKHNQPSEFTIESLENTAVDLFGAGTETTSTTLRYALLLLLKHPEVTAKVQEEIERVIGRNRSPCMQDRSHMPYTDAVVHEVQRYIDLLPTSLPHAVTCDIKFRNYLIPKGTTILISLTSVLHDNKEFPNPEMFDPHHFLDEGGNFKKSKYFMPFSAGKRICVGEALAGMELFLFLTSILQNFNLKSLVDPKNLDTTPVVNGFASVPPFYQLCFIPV

[3] = target: T2, Cytochrome P450 1A2 (Homo sapiens, UniProt P05177); test: Inhibition of recombinant human CYP1A2 expressed in insect cell microsomes using Luciferin-ME as substrate preincubated for 10 mins followed by NADPH addition measured after 30 mins by luminometric method; assay type: ADME; conditions: recombinant enzyme, 0.5 h
T2 sequence (P05177 whole entry): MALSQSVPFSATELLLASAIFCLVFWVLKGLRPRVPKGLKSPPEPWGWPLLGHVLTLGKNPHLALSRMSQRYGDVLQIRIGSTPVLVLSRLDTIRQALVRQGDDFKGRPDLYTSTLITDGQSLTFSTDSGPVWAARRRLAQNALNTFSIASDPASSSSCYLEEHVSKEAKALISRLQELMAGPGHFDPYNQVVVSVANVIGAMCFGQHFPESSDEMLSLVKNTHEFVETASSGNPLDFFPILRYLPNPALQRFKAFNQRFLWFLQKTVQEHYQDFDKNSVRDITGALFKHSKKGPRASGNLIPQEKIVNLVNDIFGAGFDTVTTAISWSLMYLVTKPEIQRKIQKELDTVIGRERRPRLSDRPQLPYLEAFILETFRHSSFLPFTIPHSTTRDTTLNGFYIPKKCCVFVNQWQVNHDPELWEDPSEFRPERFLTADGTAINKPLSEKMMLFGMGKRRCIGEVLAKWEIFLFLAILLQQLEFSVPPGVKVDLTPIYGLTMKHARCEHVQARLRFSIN

[4] = Tmax in CD1 mouse at 200 mg/kg, po administered as single dose by HPLC-MS/MS analysis; assay type: ADME, organism-based; conditions: in vivo
[5] = in vitro; conditions: human, Caco-2
Description: Efflux ratio of apparent permeability from basolateral to apical over apical to basolateral side in human Caco2 cells after 120 mins by LC-MS/MS analysis

[6] = target: T3, CYP2D6 (Homo sapiens, UniProt P10635); test: Inhibition of recombinant human CYP2D6 expressed in insect cell microsomes at 10 uM using Luciferin-ME EGE as substrate preincubated for 30 mins followed by NADPH addition measured after 45 mins by luminometric method; assay type: ADME; conditions: probe Luciferin-ME EGE
T3 sequence (P10635 whole entry): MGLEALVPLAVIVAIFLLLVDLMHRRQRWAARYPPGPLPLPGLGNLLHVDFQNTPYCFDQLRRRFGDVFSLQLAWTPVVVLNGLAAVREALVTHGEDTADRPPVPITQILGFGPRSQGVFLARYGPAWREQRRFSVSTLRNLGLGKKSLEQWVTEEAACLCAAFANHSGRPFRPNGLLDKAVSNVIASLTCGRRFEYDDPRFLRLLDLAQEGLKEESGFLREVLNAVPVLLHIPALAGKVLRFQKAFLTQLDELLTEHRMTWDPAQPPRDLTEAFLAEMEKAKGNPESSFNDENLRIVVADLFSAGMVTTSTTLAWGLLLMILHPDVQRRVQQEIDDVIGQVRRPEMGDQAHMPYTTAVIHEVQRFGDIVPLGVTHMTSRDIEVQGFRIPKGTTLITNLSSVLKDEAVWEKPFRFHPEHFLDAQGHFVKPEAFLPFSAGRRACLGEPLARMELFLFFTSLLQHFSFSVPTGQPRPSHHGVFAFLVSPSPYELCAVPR

[7] = Drug recovery in mouse plasma at 37 degC after 120 mins by HPLC-MS/MS analysis; assay type: ADME, cell-free; conditions: read-out: Drug recovery
[8] = target: T1, CYP2C9; test: Inhibition of recombinant human CYP2C9 expressed in insect cell microsomes at 10 uM using Luciferin-H as substrate preincubated for 30 mins followed by NADPH addition measured after 30 mins by luminometric method; assay type: ADME; conditions: probe Luciferin-H
[9] = in vitro; conditions: human, Caco-2; remark: listed apart in the source
Description: Apparent permeability of the compound from basolateral to apical side in human Caco2 cells after 120 mins by LC-MS/MS analysis

[10] = Apparent clearance in CD1 mouse at 200 mg/kg, po administered as single dose by HPLC-MS/MS analysis; assay type: ADME, organism-based; conditions: in vivo
[11] = in vitro; conditions: human, Caco-2; remark: listed apart in the source
Description: Apparent permeability of the compound from basolateral to apical side in human Caco2 cells assessed as drug recovery after 120 mins by LC-MS/MS analysis

[12] = target: CYP2C19 (Homo sapiens, UniProt P33261); test: Inhibition of recombinant human CYP2C19 expressed in insect cell microsomes at 10 uM using Luciferin-H EGE as substrate preincubated for 20 mins followed by NADPH addition measured after 30 mins by luminometric method; assay type: ADME; conditions: probe Luciferin-H EGE
Chain of CYP2C19 (P33261 whole entry): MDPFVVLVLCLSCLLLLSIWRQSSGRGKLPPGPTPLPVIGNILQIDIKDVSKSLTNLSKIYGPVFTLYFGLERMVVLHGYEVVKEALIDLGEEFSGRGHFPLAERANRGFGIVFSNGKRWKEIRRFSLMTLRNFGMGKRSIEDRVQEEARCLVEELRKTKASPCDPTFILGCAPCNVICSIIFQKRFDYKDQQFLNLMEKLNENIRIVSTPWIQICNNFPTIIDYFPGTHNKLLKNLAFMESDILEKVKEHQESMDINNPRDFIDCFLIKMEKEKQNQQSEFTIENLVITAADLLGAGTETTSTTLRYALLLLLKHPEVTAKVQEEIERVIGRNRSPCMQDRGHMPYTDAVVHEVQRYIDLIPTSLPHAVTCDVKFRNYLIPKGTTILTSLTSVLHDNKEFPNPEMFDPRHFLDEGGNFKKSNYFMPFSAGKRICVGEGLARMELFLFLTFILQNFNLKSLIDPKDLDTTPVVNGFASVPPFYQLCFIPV

[13] = target: T4, CYP1A2 (Homo sapiens, UniProt P05177); test: Inhibition of recombinant human CYP1A2 expressed in insect cell microsomes at 10 uM using Luciferin-ME as substrate preincubated for 10 mins followed by NADPH addition measured after 30 mins by luminometric method; assay type: ADME; conditions: probe Luciferin-ME
T4 sequence (P05177 whole entry): T2 sequence (P05177 whole entry)

[14] = target: T5, Coelenterazine h 2-monooxygenase (Renilla reniformis, UniProt P27652); test: Effect on Renilla reniformis luciferase; assay type: ADME
T5 sequence (P27652 whole entry): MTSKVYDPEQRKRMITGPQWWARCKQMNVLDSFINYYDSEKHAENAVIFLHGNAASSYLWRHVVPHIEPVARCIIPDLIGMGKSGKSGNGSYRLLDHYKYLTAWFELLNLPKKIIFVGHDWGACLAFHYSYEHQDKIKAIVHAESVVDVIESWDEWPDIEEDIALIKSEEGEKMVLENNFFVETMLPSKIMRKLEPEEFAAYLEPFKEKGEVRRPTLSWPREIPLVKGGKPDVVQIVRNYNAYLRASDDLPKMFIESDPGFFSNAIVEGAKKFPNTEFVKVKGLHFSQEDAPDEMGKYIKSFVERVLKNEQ

[15] = target: Cytochrome P450 3A4 (Homo sapiens, UniProt P08684); test: Inhibition of recombinant human CYP3A4 expressed in insect cell microsomes using Luciferin-IPA as substrate preincubated for 10 mins followed by NADPH addition measured after 10 mins by luminometric method; assay type: ADME; conditions: recombinant enzyme
Chain of Cytochrome P450 3A4 (P08684 whole entry): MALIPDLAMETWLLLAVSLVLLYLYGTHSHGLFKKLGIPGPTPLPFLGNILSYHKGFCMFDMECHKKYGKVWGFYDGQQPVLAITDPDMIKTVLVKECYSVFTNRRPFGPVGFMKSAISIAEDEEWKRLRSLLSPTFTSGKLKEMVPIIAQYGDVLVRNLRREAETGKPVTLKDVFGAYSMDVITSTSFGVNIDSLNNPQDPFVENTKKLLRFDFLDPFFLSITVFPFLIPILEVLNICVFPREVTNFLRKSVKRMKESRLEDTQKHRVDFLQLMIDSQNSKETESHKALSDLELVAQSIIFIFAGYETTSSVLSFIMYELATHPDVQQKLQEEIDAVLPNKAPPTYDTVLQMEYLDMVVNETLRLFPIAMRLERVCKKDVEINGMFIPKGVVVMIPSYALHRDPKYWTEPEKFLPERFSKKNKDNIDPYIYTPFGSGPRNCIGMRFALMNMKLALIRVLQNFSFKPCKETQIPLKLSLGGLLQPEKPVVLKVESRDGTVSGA

[16] = test system: Mus musculus; test: Tlast in CD1 mouse at 200 mg/kg, po administered as single dose by HPLC-MS/MS analysis; assay type: ADME, organism-based; conditions: in vivo
[17] = test system: LS180; test: Antiproliferative activity against human LS180 cells after 72 hrs by sulforhodamine-B assay; assay type: functional, cell-based; conditions: for IC50: LS180, 72 h
[18] = Inhibition of hedgehog signaling pathway-mediated differentiation of mouse C3H10T1/2 cells assessed as decrease in SAG-induced ALP activity after 6 days by chemiluminescence-based assay; conditions: C3H 10T1/2, 144 h
[19] = Apparent terminal volume of distribution in CD1 mouse at 200 mg/kg, po administered as single dose by HPLC-MS/MS analysis; assay type: ADME, organism-based; conditions: in vivo, read-out: Vz/F
[20] = target: T1, CYP2C9; test: Inhibition of recombinant human CYP2C9 expressed in insect cell microsomes at 5 uM using Luciferin-H as substrate preincubated for 30 mins followed by NADPH addition measured after 30 mins by luminometric method; assay type: ADME; conditions: probe Luciferin-H
[21] = AUClast in CD1 mouse at 200 mg/kg, po administered as single dose by HPLC-MS/MS analysis; assay type: ADME, organism-based; set-up: dose 200 mg/kg, time 0 - last, route oral; conditions: in vivo
[22] = test system: Mus musculus; test: Clast in CD1 mouse at 200 mg/kg, po administered as single dose by HPLC-MS/MS analysis; assay type: ADME, organism-based; conditions: in vivo
[23] = target: T3, CYP2D6; test: Inhibition of recombinant human CYP2D6 expressed in insect cell microsomes at 5 uM using Luciferin-ME EGE as substrate preincubated for 30 mins followed by NADPH addition measured after 45 mins by luminometric method; assay type: ADME; conditions: probe Luciferin-ME EGE
[24] = in vitro; conditions: human, Caco-2; remark: listed apart in the source
Description: Apparent permeability of the compound from apical to basolateral side in human Caco2 cells assessed as drug recovery after 120 mins by LC-MS/MS analysis

[25] = target: CYP3A4 (Homo sapiens, UniProt P08684); test: Inhibition of recombinant human CYP3A4 expressed in insect cell microsomes at 1 uM using Luciferin-IPA as substrate preincubated for 10 mins followed by NADPH addition measured after 10 mins by luminometric method; assay type: ADME; conditions: probe Luciferin-IPA
Chain of CYP3A4 (P08684 whole entry): as above

[26] = in vitro; conditions: human, Caco-2; remark: listed apart in the source
Description: Apparent permeability of the compound from apical to basolateral side in human Caco2 cells after 120 mins by LC-MS/MS analysis

[27] = target: T4, CYP1A2; test: Inhibition of recombinant human CYP1A2 expressed in insect cell microsomes at 1 uM using Luciferin-ME as substrate preincubated for 10 mins followed by NADPH addition measured after 30 mins by luminometric method; assay type: ADME; conditions: probe Luciferin-ME

Row | Cmax [1] [ng/mL] | inhibition at 0.5 h, 1 µM [2] [%] | inhibition (INH) [3] | Tmax [4] [h] | efflux ratio at 2 h [5] | inhibition at 0.75 h, 10 µM [6] [%] | remaining at 2 h [7] [%] | inhibition at 0.5 h, 10 µM [8] [%] | Papp B→A at 2 h [9] [×10⁻⁶ cm/s] | CL/F [10] [mL/min/kg] | recovery at 2 h [11] [%] | inhibition at 0.5 h, 10 µM [12] [%] | inhibition at 0.5 h, 10 µM [13] [%] | Activity [14] | inhibition (INH) [15] | Tlast [16] [h] | IC50 [18] [µM] | Vd/F [19] [L/kg] | SMILES | Activity [17] | IC50 [17] [µM] | other results
1 | 11000 | 68 | Dose-dependent effect | 4 | 1.05 | 11 | 81.3 | 83 | 0.737 | 24.3 | 44.6 | 83 | 40 | Not Active | Dose-dependent effect | 24 | 0.04 | 5.28 | COc1cc(C(=O)NC(=N)Nc2ccc(C)c(NC(=O)c3ccc(CCc4ccccc4)cc3)c2)cc(OC)c1OC.Cl | Dose-dependent effect | 2.5 | inhibition at 0.5 h, 5 µM [20]: 81%; AUC(0-t) [21]: 137 µg·h/mL; Clast [22]: 50.7 ng/mL; inhibition at 0.75 h, 5 µM [23]: 12%; recovery at 2 h [24]: 41.1%; inhibition at 10 min, 1 µM [25]: 76%; Papp A→B at 2 h [26]: 0.701 ×10⁻⁶ cm/s; inhibition at 0.5 h, 1 µM [27]: 29%
2 | 29600 | 43 | Dose-dependent effect | 2 | 1.52 | 23 | 72.1 | 74 | 0.651 | 14 | 31.9 | 81 | 64 | Not Active | Dose-dependent effect | 24 | 0.06 | 2.96 | COc1cc(C(=O)NC(=N)Nc2ccc(C)c(NC(=O)c3ccc(-c4ccccc4)cc3)c2)cc(OC)c1OC.Cl | Dose-dependent effect | 9.7 | inhibition at 0.5 h, 5 µM [20]: 71%; AUC(0-t) [21]: 237 µg·h/mL; Clast [22]: 74.2 ng/mL; inhibition at 0.75 h, 5 µM [23]: 29%; recovery at 2 h [24]: 16.5%; inhibition at 10 min, 1 µM [25]: 38%; Papp A→B at 2 h [26]: 0.428 ×10⁻⁶ cm/s; inhibition at 0.5 h, 1 µM [27]: 49%
3 | 17300 | 63 | Dose-dependent effect | 1 | 1.01 | 21 | 66.6 | 79 | 0.37 | 14.9 | 30.6 | 76 | 59 | Not Active | Dose-dependent effect | 24 | 0.07 | 3.32 | COc1cc(C(=O)NC(=N)Nc2ccc(C)c(NC(=O)c3ccc(-c4ccc(F)cc4)cc3)c2)cc(OC)c1OC.Cl | Dose-dependent effect | 8.1 | inhibition at 0.5 h, 5 µM [20]: 76%; AUC(0-t) [21]: 223 µg·h/mL; Clast [22]: 90.7 ng/mL; inhibition at 0.75 h, 5 µM [23]: 25%; recovery at 2 h [24]: 33%; inhibition at 10 min, 1 µM [25]: 52%; Papp A→B at 2 h [26]: 0.366 ×10⁻⁶ cm/s; inhibition at 0.5 h, 1 µM [27]: 46%
